Earlier results on two compounds are cited in US20240365792A1, “Pest Control Formulations and Uses Thereof” (priority 2021, published 2024).

The conditions of data set [1]: direct application to the skin.
The target in a further data set is acetylcholinesterase (Homo sapiens, UniProt P22303). As to conditions: in humans.
A further data set has as its system insects. The following applies: compared with DEET.
The next data set concerns salamander larvae. As to conditions: in vivo.

The structures appear in SMILES notation.

acetylcholinesterase, sequence (P22303 32-614): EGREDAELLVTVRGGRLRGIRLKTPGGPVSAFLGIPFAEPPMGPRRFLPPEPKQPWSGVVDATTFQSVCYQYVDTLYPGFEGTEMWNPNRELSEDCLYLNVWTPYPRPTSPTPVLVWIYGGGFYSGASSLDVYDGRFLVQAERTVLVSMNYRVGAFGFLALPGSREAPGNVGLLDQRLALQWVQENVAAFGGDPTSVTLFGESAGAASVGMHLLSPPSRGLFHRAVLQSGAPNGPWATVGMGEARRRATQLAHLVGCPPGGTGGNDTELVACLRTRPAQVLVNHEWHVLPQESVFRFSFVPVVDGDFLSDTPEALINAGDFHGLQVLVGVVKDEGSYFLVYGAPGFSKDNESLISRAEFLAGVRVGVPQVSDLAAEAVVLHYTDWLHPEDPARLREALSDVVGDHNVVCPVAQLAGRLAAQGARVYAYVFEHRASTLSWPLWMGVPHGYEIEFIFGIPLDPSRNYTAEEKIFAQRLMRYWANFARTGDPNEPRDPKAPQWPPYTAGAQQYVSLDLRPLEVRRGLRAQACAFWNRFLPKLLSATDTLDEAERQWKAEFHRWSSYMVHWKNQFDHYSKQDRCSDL

As for `CCN(CC)C(=O)c1cccc(C)c1` [DEET, N,N-diethyl-3-methylbenzamide], the irritancy result in data set [1] is reported as “act as an irritant”. Further, the inhibition of acetylcholinesterase entry at acetylcholinesterase is “inhibit acetylcholinesterase”.

On to `CCC(C)OC(=O)N1CCCCC1CCO` (centres unmarked) [icaridin], for which the irritancy result in data set [1] is recorded as “less irritating than DEET”. The “effectiveness at repelling insects” value in the data set on insects is given as “as effective as DEET”. In addition, the “toxicity to salamander larvae” value in the data set on salamander larvae is recorded as “toxic to salamander larvae”.
